Experimental data taken from patent US20130136693A1, “Crystal Forms of 2--Adenosine” (King Pharmaceuticals Research and Development, Inc, priority 2008, published 2013).
Blank lines part the entries; values can stand above or below the compound they belong to.

What was measured:
Format in all cases: physicochemical
[1] = solubility studies in EtOH
Experimental: In the current set of results, Form I crystals readily transforms into Form II crystals in EtOAc at 60° C. for 4 h (experiment No. 7). […] Thus, Form I appears to convert to Form II, but really converts to Form II hydrate. […] Thus, in the presence of residual water, Form II is obtained in the isostructural hydrate form, whereas in a completely anhydrous system, Form I results.

[2] = drying of crystals, crystal form checked by XRPD
Experimental: Furthermore, TGA and ^1H-NMR indicate that Form I crystals may also contain approximately 4 wt-% of ethanol (FIG. 1A).
In accordance with the TG data, after a few minutes at 125° C. in the KF oven, most of the weight loss from ethanol and water is complete affording Form I crystals in an anhydrous form (FIG. 1B). […] A comparison of the calorimetric behavior of the anhydrous Form I crystals and the Form I crystals containing residual solvents (“undried”) is summarized in Table 1:
Form II crystal form may be obtained in a hydrated form or in an anhydrous form. For example, slow crystallization from lower alcohols such as MeOH and EtOH in the presence of residual water provides hydrated Form II crystals.

[3] = non-competitive slurry experiments (XRPD of remaining solids); conditions: for Final Form (XRPD): 4 h
Experimental: In an alternative aspect of the present invention, solid forms of binodenoson may be suspended in a suitable solvent at a temperature of at least 10° C., preferably at a temperature ranging from about 25° C. to about 60° C. Under suitable conditions, a suspension/slurry results in which particles of solid are dispersed, and remain incompletely dissolved in the solvent. Preferably, the solids are maintained in a state of suspension by agitation, e.g., by shaking or stirring. The suspension/slurry is then kept at a temperature of 10° C. or higher, e.g., at a temperature ranging from about 25° C. to about 60° C., for a time sufficient to effect transformation of the starting solids into product crystals. The product crystals may then be isolated and dried using conventional methods in the art. In the presence of water, all crystal forms of binodenoson will convert to Form II hydrate.
Noncompetitive slurry experiments are useful for identifying solvent mediated conditions useful for converting one crystalline form to another. In these experiments, excess material of a single crystal form is mixed with a solvent under isothermal conditions. These experiments rely on differences in solubility of the different polymorphic forms. […] Essentially, when a polymorph is suspended in a suitable solvent, a saturated solution phase (eventually) results. The solution phase is saturated with respect to the polymorphic form dissolved.
The results of these experiments often depend on nucleation kinetics and the presence of impurities that may inhibit nuclei growth of other stable crystalline modifications.
(§1) In general, slurry experiments are performed by agitating approximately 0.01 g to 2.5 g of material in 0.5 mL to 50 mL of slurry solvent. Uniform agitation and temperature control are accomplished using, e.g., Reacti-Therm heating modules and small Teflon coated stir bars. The duration of the slurry experiments is often around 24 h (although in some cases the experiments may be continued for several weeks). At the end of the slurry experiment, remaining undissolved solids are collected by vacuum filtration. To avoid inducing any type of physical change, the solids are not subjected to additional drying before the XRPD analysis.

[4] = moisture sorption analysis; conditions: relative humidity of about 94%, 14 days, 25° C.
[5] = competitive slurry experiments (XRPD of remaining solids); conditions: 25 °C, 24 h
Experimental: Two different types of slurry experiments may be performed, i.e., competitive and noncompetitive slurry experiments. Competitive slurry experiments are performed by mixing excess amounts of non-solvated polymorphic forms together in different solvents and agitating the mixture isothermally. These types of slurry experiments may be used to determine which form is more thermodynamically stable (under the conditions tested).
When competitive slurry experiments are performed, the nucleation step is generally bypassed. Because the two (or more) forms placed into contact with the solvent have different solubilities, particles of the form with the lower solubility grow at the expense of the more soluble form. This occurs since the more soluble form is saturated, and the less soluble form is supersaturated.
as §1
In addition to the pure solvent noncompetitive slurry experiments performed, three competitive slurry experiments in Table 8 are performed at room temperature. These slurry experiments are composed of an approximately 50/50 mixture of Form I and Form II solids. Three different solvents are used to perform the competitive slurry experiments: DCM, i-PrOAc and EtOAc.

SMILES: Nc1nc(NN=CC2CCCCC2)nc2c1ncn2[C@@H]1O[C@H](CO)[C@@H](O)[C@H]1O [Form I, 2-{2-[(cyclohexyl)methylene]-hydrazino}adenosine]
thermodynamic stability relative to Form II ([1]; when water is not present, from solubilities): thermodynamically more stable than Form II
change of crystalline form upon drying (XRPD) ([2]; drying under nitrogen, 125° C. in the KF oven): does not change significantly
Final Form (XRPD) ([3]; experiment No. 1: EtOAc, 40 °C): amorphous
Final Form (XRPD) ([3]; experiment No. 2: EtOH, 40 °C): all dissolved
Final Form (XRPD) ([3]; experiment No. 4: i-Pr2O, 40 °C): amorphous
Final Form (XRPD) ([3]; experiment No. 5: MeOH, 40 °C): all dissolved
Final Form (XRPD) ([3]; experiment No. 7: EtOAc, 60 °C): II^b
hygroscopicity [4]: non-hygroscopic

SMILES: Nc1nc(NN=CC2CCCCC2)nc2c1ncn2[C@@H]1O[C@H](CO)[C@@H](O)[C@H]1O [Form II, 2-{2-[(cyclohexyl)methylene]-hydrazino}adenosine]
solubility compared with Form I ([1]; anhydrous Forms I and II compared in EtOH): much higher solubility
behaviour during solubility studies ([1]; dry EtOH): completely dissolve and recrystallize as Form I

SMILES: Nc1nc(NN=CC2CCCCC2)nc2c1ncn2[C@@H]1O[C@H](CO)[C@@H](O)[C@H]1O [Form V, 2-{2-[(cyclohexyl)methylene]-hydrazino}adenosine]
stability relative to Form I ([3]; at 40° C., from experiment No. 6 (DCM slurry)): more stable than Form I

SMILES: Nc1nc(NN=CC2CCCCC2)nc2c1ncn2[C@@H]1O[C@H](CO)[C@@H](O)[C@H]1O [Form II hydrate, 2-{2-[(cyclohexyl)methylene]-hydrazino}adenosine]
solubility of the isostructural hydrate ([1]; presence of residual water, deduced): lower solubility than that of Form I
change of XRPD pattern upon drying ([2]; drying the hydrated crystals): does not change the XRPD pattern

More lines, now with the values ahead:

crystal form after moisture sorption analysis [4]: remains the same
weight gain in moisture sorption analysis [4]: approximately 1.3%
SMILES: Nc1nc(NN=CC2CCCCC2)nc2c1ncn2[C@@H]1O[C@H](CO)[C@@H](O)[C@H]1O [anhydrous Form I, 2-{2-[(cyclohexyl)methylene]-hydrazino}adenosine]

Final Form (XRPD) ([5]; experiment No. 11: DCM): II^b
Final Form (XRPD) ([5]; experiment No. 12: i-PrOAc): II^b
Final Form (XRPD) ([5]; experiment No. 13: EtOAc): II^b
SMILES: Nc1nc(NN=CC2CCCCC2)nc2c1ncn2[C@@H]1O[C@H](CO)C(O)C1O (stereo partly drawn) [Form I & II, 2-{2-[(cyclohexyl)methylene]-hydrazino}adenosine]
